From US7446102B2, “Antibacterial amide macrocycles IV” (priority 2004, dated 2008)
Counter-ions that a name gives are not always drawn. Like-named read-outs stand apart in the source and are kept apart here.

How the values were obtained:
Format in all cases: cell-based
S. aureus 133 = assay: Determination of the minimum inhibitory concentration (MIC), S. aureus 133; settings: Staphylococcus aureus, 133, read-out: MIC S. aureus 133
Protocol: (§1) Determination of the Minimum Inhibitory Concentration (MIC)
(§2) The minimum inhibitory concentration (MIC) is the minimum concentration of an antibiotic with which the growth of a test microbe is inhibited over 18-24 h. The inhibitor concentration can in these cases be determined by standard microbiological methods (see, for example, The National Committee for Clinical Laboratory Standards. Methods for dilution antimicrobial susceptibility tests for bacteria that grow aerobically; approved standard-fifth edition. NCCLS document M7-A5 [ISBN 1-56238-394-9]. NCCLS, 940 West Valley Road, Suite 1400, Wayne, Pa. 19087-1898 USA, 2000). The MIC of the compounds of the invention is determined in the liquid dilution test on the 96-well microtitre plate scale. The bacterial microbes are cultivated in a minimal medium (18.5 mM Na2HPO4, 5.7 mM KH2PO4, 9.3 mM NH4Cl, 2.8 mM MgSO4, 17.1 mM NaCl, 0.033 μg/ml thiamine hydrochloride, 1.2 μg/ml nicotinic acid, 0.003 μg/ml biotin, 1% glucose, 25 μg/ml of each proteinogenic amino acid with the exception of phenylalanine; [H.-P. Kroll; unpublished]) with the addition of 0.4% BH broth (test medium). In the case of Enterococcus facium L4001, heat-inactivated fetal calf serum (FCS; GibcoBRL, Germany) is added to the test medium in a final concentration of 10%. Overnight cultures of the test microbes are diluted to an OD578 of 0.001 (to 0.01 in the case of enterococci) in fresh test medium, and incubated 1:1 with dilutions of the test substances (1:2 dilution steps) in test medium (200 μl final volume). The cultures are incubated at 37° C. for 18-24 hours; enterococci in the presence of 5% CO2.
(§3) The lowest substance concentration in each case at which no visible bacterial growth occurred any more is defined as the MIC.
(§4) Alternative Method for Determining the Minimum Inhibitory Concentration (MIC)
(§5) The minimum inhibitory concentration (MIC) is the minimum concentration of an antibiotic with which the growth of a test microbe is inhibited over 18-24 h. The inhibitor concentration can in these cases be determined by standard microbiological methods with modified medium in an agar dilution test (see, for example, The National Committee for Clinical Laboratory Standards. Methods for dilution antimicrobial susceptibility tests for bacteria that grow aerobically; approved standard-fifth edition. NCCLS document M7-A5 [ISBN 1-56238-394-9]. NCCLS, 940 West Valley Road, Suite 1400, Wayne, Pa. 19087-1898 USA, 2000). The bacterial microbes are cultivated on 1.5% agar plates which contain 20% defibrinated horse blood. The test microbes, which are incubated overnight on Columbia blood agar plates (Becton-Dickinson), are diluted in PBS, adjusted to a microbe count of about […] and placed dropwise (1-3 μl) on test plates. The test substances comprise different dilutions of the test substances (1:2 dilution steps). The cultures are incubated at 37° C. in the presence of 5% CO2 for 18-24 hours.
(§6) The lowest substance concentration in each case at which no visible bacterial growth occurred any more is defined as the MIC and is reported in μg/ml.

S. aureus T17 = assay: Determination of the minimum inhibitory concentration (MIC), biphenomycin-resistant S. aureus T17; settings: Staphylococcus aureus
Protocol: as §1, §2, §3, §4, §5, §6
The S. aureus strain T17 is isolated in vivo. CFW1 mice are infected intraperitoneally with 4×10^7 S. aureus 133 cells per mouse. 0.5 h after the infection, the animals are treated intravenously with 50 mg/kg biphenomycin B. The kidneys are removed from the surviving animals on day 3 after the infection. After homogenization of the organs, the homogenates are plated out as described for RN4220Bi^R on antibiotics-free and antibiotics-containing agar plates and incubated at 37° C. overnight. […] About 20 of these colonies are tested for the biphenomycin B MIC, and a colony with an MIC of >50 μM is selected for further cultivation, and the strain is referred to as T17.

E. faecium L4001 = assay: Determination of the minimum inhibitory concentration (MIC), E. faecium L4001; settings: Enterococcus faecium, L4001, read-out: MIC E. faecium L4001
Protocol: as §1, §2, §3, §4, §5, §6

S. aureus RN4220 = assay: Isolation of biphenomycin-resistant strain from S. aureus RN4220: resistance rate on biphenomycin B agar; settings: S. aureus RN4220 on agar plate containing 2 μg/ml biphenomycin B (10×MIC), 37° C. overnight
Protocol: Isolation of the Biphenomycin-Resistant S. aureus Strains RN4220Bi^R and T17
The S. aureus strain RN4220Bi^R is isolated in vitro. For this purpose, 100 μl portions of an S. aureus RN4220 cell suspension (about 1.2×10^8 cfu/ml) are plated out on an antibiotics-free agar plate (18.5 mM Na2HPO4, 5.7 mM KH2PO4, 9.3 mM NH4Cl, 2.8 mM MgSO4, 17.1 mM NaCl, 0.033 μg/ml thiamine hydrochloride, 1.2 μg/ml nicotinic acid, 0.003 μg/ml biotin, 1% glucose, 25 μg/ml of each proteinogenic amino acid with the addition of 0.4% BH broth and 1% agarose) and on an agar plate containing 2 μg/ml biphenomycin B (10×MIC), and incubated at 37° C. overnight. Whereas about 1×10^7 cells grow on the antibiotics-free plate, about 100 colonies grow on the antibiotics-containing plate, corresponding to a resistance rate of 1×10^−5. Some of the colonies grown on the antibiotics-containing plate are tested for the biphenomycin B MIC. One colony with an MIC of >50 μM is selected for further use, and the strain is referred to as RN4220Bi^R.

NC[C@H](O)C[C@@H]1NC(=O)[C@@H](N)Cc2cc(ccc2O)-c2ccc(O)c(c2)C[C@@H](C(=O)O)NC1=O [Example 20A, 14(S)-Amino-11(S)-(3-amino-2(R)-hydroxypropyl)-5,17-dihydroxy-10,13-dioxo-9,12-diazatricyclo[14.3.1.1^2,6]henicosa-1(19),2,4,6(21),16(20),17-hexaene-8(S)-carboxylic acid dihydrochloride, reference compound]
MIC (S. aureus 133): < 0.03 mg/L | MIC (S. aureus T17; biphenomycin-resistant strain, no visible bacterial growth, 18-24 h, 37° C., read-out: MIC S. aureus T17): > 32 mg/L | MIC (S. aureus T17; colony isolated from kidney of mice treated with 50 mg/kg biphenomycin B, read-out: MIC, selected colony (strain T17)): > 50 µM | MIC (E. faecium L4001): 0.5 mg/L | resistance rate (S. aureus RN4220): 1×10^−5
